Measurements reported in patent US11160797B2, “Pyridinone derivatives and their use as selective ALK-2 inhibitors” (NOVARTIS AG, priority 2017, dated 2021).

Columns and labels:
[1] = biological target: ALK3 (aa198-525) (Homo sapiens (Human), UniProt P36894); experiment: ADPGlo biochemical autophosphorylation assay, ALK3; settings: 15 uM ATP
[2] = biological target: ALK5 (aa162-503) (Homo sapiens (Human), UniProt P36897); experiment: Caliper biochemical peptide phosphorylation assay, ALK5; settings: 15 uM ATP
Sequence of ALK5 (aa162-503) (P36897 162-503): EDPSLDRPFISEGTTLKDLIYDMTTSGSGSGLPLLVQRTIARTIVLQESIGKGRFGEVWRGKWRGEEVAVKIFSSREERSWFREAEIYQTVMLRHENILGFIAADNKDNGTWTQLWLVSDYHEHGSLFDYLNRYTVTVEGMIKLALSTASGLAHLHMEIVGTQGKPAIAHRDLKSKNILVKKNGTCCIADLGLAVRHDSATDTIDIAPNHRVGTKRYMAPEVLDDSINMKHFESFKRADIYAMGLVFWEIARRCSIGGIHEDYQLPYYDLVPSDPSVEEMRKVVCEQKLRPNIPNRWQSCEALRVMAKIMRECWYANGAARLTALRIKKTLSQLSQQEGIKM
Text: For all biochemical assays, human recombinant proteins were expressed in and purified from baculo virus transfected insect cells. The constructs comprised the GS-domain and kinase domain of wild-type ALK2 (aa172-499), ALK2 FOP mutant (aa172-499 R206H), ALK3 (aa198-525), ALK5 (aa162-503) and ALK6 (aa168-495).
A kinase selectivity panel which measures substrate peptide phosphorylation was set-up for wild-type ALK2 (aa172-499), ALK2 FOP mutant (aa172-499 R206H), ALK1 (aa166-493), ALK5 (aa162-503) and ALK6 (aa168-495). The technology used for the described assay is based on the separation and quantification of substrate and product in an electrical field. In the course of the kinase reaction the peptide substrate is phosphorylated by a kinase. […] Due to this difference in charge the phosphorylated und unphosphorylated peptides migrate with different velocities in an electrical field.
In the applied method, this separation takes place inside a chip that contains a complex capillary system for simultaneous analysis of 12 samples (“LabChip EZ Reader 12-sipper chip”, Caliper Technologies Corp., Mountain View, USA). In order to allow the detection and quantification of the peptides in the capillary system, the peptides carry a fluorescent label (fluorescein). With this label the peptides can be quantified by fluorescence intensity through the instruments laser and detection system (LC3000, Caliper Life Sciences).
The assays were performed in 384-well, low volume microtiter assay plates in a final reaction volume of 9 ul. Dose-response curves were generated by incubating 10 nM of each kinase together with 2 uM of the fluorescently labeled substrate peptide 5-Fluo-Ahx-[…]-T-[…]-amid (10 mM stock solution in DMSO) in 50 mM Hepes pH 7.5, 0.02% Tween 20, 0.02% BSA, 1 mM DTT, 10 uM Na3VO4, 10 mM ß-Glycerolphosphate, 1 mM MgCl2, 12 mM MnCl2 (ALK1 and ALK6 7 mM) and 15 uM ATP for 60 min at 30° C. in the presence or absence of compound diluted in DMSO.
Kinase reactions were terminated by adding 15 ul STOP buffer (100 mM HEPES pH 7.5, 5% DMSO, 0.1% Caliper coating reagent, 10 mM EDTA, and 0.015% Brij35.
Plates with terminated kinase reactions were transferred to the Caliper LC3000 workstation (Caliper Technologies Corp., Mountain View, USA) for reading. The relative amount of phosphorylated peptide r, was calculated using the heights of the substrate peak, s, and the product peak, p:r=p/(p+s).
IC50 values for a given antagonist correspond to the compound concentration needed to inhibit half of the maximum signal of the kinase reaction.

[3] = tested on: HuH7 cells, BMP response element (BRE) luciferase reporter, BMP6 stimulated; experiment: BMP signaling reporter gene assay; format: cell-based; settings: Homo sapiens, Huh-7; BMP6 100 ng/ml; read-out: MSD HuH7 cell BMP reporter IC50
[4] = biological target: ALK1 (aa166-493) (Homo sapiens (Human), UniProt P37023); experiment: Caliper biochemical peptide phosphorylation assay, ALK1; settings: 15 uM ATP
Sequence of ALK1 (aa166-493) (P37023 166-493): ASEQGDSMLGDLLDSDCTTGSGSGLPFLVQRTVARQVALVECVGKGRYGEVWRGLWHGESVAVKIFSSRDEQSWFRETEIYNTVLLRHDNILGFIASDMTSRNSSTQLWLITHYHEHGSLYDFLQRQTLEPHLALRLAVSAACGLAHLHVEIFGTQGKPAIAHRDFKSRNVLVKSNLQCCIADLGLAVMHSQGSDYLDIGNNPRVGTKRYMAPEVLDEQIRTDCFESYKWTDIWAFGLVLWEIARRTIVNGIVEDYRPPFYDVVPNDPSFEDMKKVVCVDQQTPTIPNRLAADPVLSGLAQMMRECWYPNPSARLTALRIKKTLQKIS

[5] = biological target: T1, wild-type ALK2 (aa172-499) (Homo sapiens (Human), UniProt Q04771); experiment: ADPGlo biochemical autophosphorylation assay, ALK2; settings: 15 uM ATP
T1 sequence (Q04771 172-499): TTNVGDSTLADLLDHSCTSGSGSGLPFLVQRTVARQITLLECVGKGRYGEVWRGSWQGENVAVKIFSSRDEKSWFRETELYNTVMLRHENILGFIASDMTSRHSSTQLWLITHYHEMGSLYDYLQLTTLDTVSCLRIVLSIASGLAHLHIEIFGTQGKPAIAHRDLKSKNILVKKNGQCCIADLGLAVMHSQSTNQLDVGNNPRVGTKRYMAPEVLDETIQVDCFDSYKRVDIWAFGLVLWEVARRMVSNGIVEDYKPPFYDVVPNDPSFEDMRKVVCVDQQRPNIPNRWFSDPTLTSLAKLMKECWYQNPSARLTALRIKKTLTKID

[6] = biological target: ALK6 (aa168-495) (Homo sapiens (Human), UniProt O00238); experiment: Caliper biochemical peptide phosphorylation assay, ALK6; settings: 15 uM ATP
Sequence of ALK6 (aa168-495) (O00238 168-495): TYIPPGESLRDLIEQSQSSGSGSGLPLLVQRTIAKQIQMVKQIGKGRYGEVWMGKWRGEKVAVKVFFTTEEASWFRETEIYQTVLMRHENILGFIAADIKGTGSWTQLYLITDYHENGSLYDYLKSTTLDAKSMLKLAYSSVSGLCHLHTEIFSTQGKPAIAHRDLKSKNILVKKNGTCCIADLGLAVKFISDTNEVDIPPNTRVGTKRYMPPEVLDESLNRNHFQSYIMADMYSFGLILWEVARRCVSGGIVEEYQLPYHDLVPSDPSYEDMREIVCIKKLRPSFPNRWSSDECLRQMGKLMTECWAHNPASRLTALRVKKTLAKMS

[7] = biological target: ALK2 FOP mutant (aa172-499 R206H) (Homo sapiens (Human), UniProt Q04771, R206H); experiment: Caliper biochemical peptide phosphorylation assay, ALK2 FOP; settings: Caliper peptide phosphorylation, R206H, 15 uM ATP; read-out: ALK2 FOP EPK IC50
Sequence of ALK2 FOP mutant (aa172-499 R206H) (Q04771 172-499 R206H): as the sequence (Q04771 172-499) above, with R35H counted along it

[8] = biological target: T1, wild-type ALK2 (aa172-499); experiment: Caliper biochemical peptide phosphorylation assay, ALK2; settings: Caliper peptide phosphorylation, 15 uM ATP; read-out: ALK2 IC50

Sequence of ALK3 (aa198-525) (P36894 198-525): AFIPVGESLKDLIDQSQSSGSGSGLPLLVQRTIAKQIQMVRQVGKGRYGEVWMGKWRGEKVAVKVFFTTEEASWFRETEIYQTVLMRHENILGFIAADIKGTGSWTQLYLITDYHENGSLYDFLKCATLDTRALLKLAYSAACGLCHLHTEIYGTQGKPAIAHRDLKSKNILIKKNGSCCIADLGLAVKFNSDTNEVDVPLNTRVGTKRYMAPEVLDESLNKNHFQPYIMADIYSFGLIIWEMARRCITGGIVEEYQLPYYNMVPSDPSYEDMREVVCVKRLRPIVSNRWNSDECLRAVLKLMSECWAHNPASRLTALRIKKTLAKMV

| IC50 [1] [µM] | IC50 [2] [µM] | IC50 [3] [µM] | IC50 [4] [µM] | IC50 [5] [µM] | IC50 [6] [µM] | IC50 [7] [µM] | IC50 [8] [µM] | SMILES |
| --- | --- | --- | --- | --- | --- | --- | --- | --- |
| 9.9 | > 10 | 1.5 | 5.1 | 0.88 | > 10 | 0.74 | 0.76 | COCn1cc(-c2cncc(-c3ccc4c(c3)CC(=O)N4C)c2)ccc1=O [Example 15, 5-(1′-(methoxymethyl)-6′-oxo-1′,6′-dihydro-[3,3′-bipyridin]-5-yl)-1-methylindolin-2-one] |
| 0.3 | 1.9 | 0.06 | 0.42 | 0.067 | 0.8 | 0.06 | 0.07 | CC(C)CN1C(=O)Cc2cc(-c3cncc(-c4ccc(=O)n(C(C)C)c4)c3)ccc21 [Example 24, 1-Isobutyl-5-(1′-isopropyl-6′-oxo-1′,6′-dihydro-[3,3′-bipyridin]-5-yl)indolin-2-one] |
| 4.2 | > 10 | 0.54 | 2.17 | 0.725 | 2.77 | 0.34 | 0.39 | CCC1C(=O)N(C)c2ccc(-c3cncc(-c4ccc(=O)n(C(C)C)c4)c3)cc21 (centres unmarked) [Example 22, 3-Ethyl-5-(1′-isopropyl-6′-oxo-1′,6′-dihydro-[3,3′-bipyridin]-5-yl)-1-methylindolin-2-one] |
| 6.3 | > 10 | 0.63 | 6.4 | 0.49 | > 10 | 0.71 | 0.47 | CC(C)n1cc(-c2cncc(-c3cnc4c(c3)CC(=O)N4)c2)ccc1=O [Example 41, 5-(1′-Isopropyl-6′-oxo-1′,6′-dihydro-[3,3′-bipyridin]-5-yl)-1H-pyrrolo[2,3-b]pyridin-2(3H)-one] |
| 1 | 5.7 | 0.23 | 0.67 | 0.11 | 3.05 | 0.08 | 0.09 | CC(C)n1nc(-c2cncc(-c3ccc4c(c3)CC(=O)N4C)c2)ccc1=O [Example 44, 5-(5-(1-isopropyl-6-oxo-1,6-dihydropyridazin-3-yl)pyridin-3-yl)-1-methylindolin-2-one] |
| 0.49 | 1.5 | 0.09 | 0.54 | 0.1 | 1 | 0.07 | 0.08 | CCCN1C(=O)Cc2cc(-c3cncc(-c4ccc(=O)n(C(C)C)c4)c3)ccc21 [Example 25, 5-(1′-Isopropyl-6′-oxo-1′,6′-dihydro-[3,3′-bipyridin]-5-yl)-1-propylindolin-2-one] |
| 15 | > 10 | 1.2 | 8.7 | 1.1 | > 10 | 0.83 | 0.82 | CN1C(=O)Cc2cc(-c3cncc(-c4ccc(=O)n(CCC(F)(F)F)c4)c3)ccc21 [Example 16, 1-methyl-5-(6′-oxo-1′-(3,3,3-trifluoropropyl)-1′,6′-dihydro-[3,3′-bipyridin]-5-yl)indolin-2-one] |
| > 15.1 | > 10 | 0.42 | 4.7 | 1 | > 10 | 0.6 | 0.71 | CN1C(=O)Cc2cc(-c3cncc(-c4ccc(=O)n(C5CCCCO5)c4)c3)ccc21 (centres unmarked) [Example 18, 1-methyl-5-(6′-oxo-1′-(tetrahydro-2H-pyran-2-yl)-1′,6′-dihydro-[3,3′-bipyridin]-5-yl)indolin-2-one] |
| 0.57 | 1.8 | 0.06 | 0.36 | 0.064 | 0.72 | 0.053 | 0.06 | CC(C)N1C(=O)Cc2cc(-c3cncc(-c4ccc(=O)n(C(C)C)c4)c3)ccc21 [Example 21, 1-Isopropyl-5-(1′-isopropyl-6′-oxo-1′,6′-dihydro-[3,3′-bipyridin]-5-yl)indolin-2-one] |
| 0.67 | 2.9 | – | 0.57 | 0.13 | 1.1 | 0.13 | 0.14 | CCN1c2ccc(-c3cncc(-c4ccc(=O)n(C(C)C)c4)c3)cc2CS1(=O)=O [Example 49, 5′-(1-ethyl-2,2-dioxido-1,3-dihydrobenzo[c]isothiazol-5-yl)-1-isopropyl-[3,3′-bipyridin]-6(1H)-one] |
| 7.9 | > 10 | 0.64 | 4.7 | 0.6 | > 10 | 0.47 | 0.49 | CN1C(=O)Cc2cc(-c3cncc(-c4ccc(=O)n(CC5CCC5)c4)c3)ccc21 [Example 11, 5-(1′-(cyclobutylmethyl)-6′-oxo-1′,6′-dihydro-[3,3′-bipyridin]-5-yl)-1-methylindolin-2-one] |
| 0.283 | 2.4 | 0.083 | 0.21 | 0.071 | 1 | 0.06 | 0.06 | CC(C)n1cc(-c2cncc(-c3ccc4c(c3)CS(=O)(=O)N4C)c2)ccc1=O [Example 48, 1-isopropyl-5′-(1-methyl-2,2-dioxido-1,3-dihydrobenzo[c]isothiazol-5-yl)-[3,3′-bipyridin]-6(1H)-one] |
| 2.5 | > 10 | 0.3 | 1.7 | 0.29 | 5.4 | 0.24 | 0.24 | CC(C)n1cc(-c2cncc(-c3cnc4c(c3)CCC(=O)N4C)c2)ccc1=O [Example 37, 6-(1′-Isopropyl-6′-oxo-1′,6′-dihydro-[3,3′-bipyridin]-5-yl)-1-methyl-3,4-dihydro-1,8-naphthyridin-2(1H)-one] |
| 0.6 | 1 | 0.12 | 0.52 | 0.09 | 2 | 0.09 | 0.1 | CC(C)n1cc(-c2nc(-c3ccc4c(c3)CC(=O)N4C)cnc2N)ccc1=O [Example 43, 5-(5-amino-6-(1-isopropyl-6-oxo-1,6-dihydropyridin-3-yl)pyrazin-2-yl)-1-methylindolin-2-one] |
| > 15.1 | > 10 | 1.2 | 7 | 1.1 | > 10 | 0.91 | 0.92 | CC(C)CCn1cc(-c2cncc(-c3ccc4c(c3)CC(=O)N4C)c2)ccc1=O [Example 17, 5-(1′-isopentyl-6′-oxo-1′,6′-dihydro-[3,3′-bipyridin]-5-yl)-1-methylindolin-2-one] |
| 0.93 | 5 | 0.13 | 0.62 | 0.15 | 2.5 | 0.11 | 0.12 | CC(C)n1cc(-c2cncc(-c3ccc4c(c3)CC(=O)N4C)n2)ccc1=O [Example 46, 5-(6-(1-isopropyl-6-oxo-1,6-dihydropyridin-3-yl)pyrazin-2-yl)-1-methylindolin-2-one] |
| 0.88 | 2.7 | – | 0.78 | 0.16 | 1.5 | 0.15 | 0.16 | CC(C)n1cc(-c2cncc(-c3ccc4c(c3)CS(=O)(=O)N4CC3CCC3)c2)ccc1=O [Example 51, 5′-(1-(cyclobutylmethyl)-2,2-dioxido-1,3-dihydrobenzo[c]isothiazol-5-yl)-1-isopropyl-[3,3′-bipyridin]-6(1H)-one] |
